Article PMC6395927, “Rufomycin Targets ClpC1 Proteolysis in Mycobacterium tuberculosis and M. abscessus” (Antimicrobial Agents and Chemotherapy, 2019)
≈ marks a conversion by molar mass, not a printed value. Read-outs that look alike come from different tables or passages of the source. Numbered stars: 1 amine (or outer) side, 2 acyl side, 3 side chain; on linkers, the order of the positions; unused ones are H or OH. Square brackets hold non-standard residues; d marks the D form. Peptide text beside a SMILES is read from it. ξ: configuration not given here. Trp(1-(1,1-Me2-allyl)) = C=CC(C)(C)n1cc(C[C@H](N)C(=O)O)c2ccccc21; X4 = CC(C)(C1CO1)n1cc(C[C@H](N[*:1])C(=O)[*:2])c2ccccc21; Tyr(3-NO2) = N[C@@H](Cc1ccc(O)c([N+](=O)[O-])c1)C(=O)O; X3 = CC(CC(C(=O)[*:2])N(C)[*:1])C(=O)O; Gly(E-crotyl) = C/C=C/C[C@H](N)C(=O)O; NMeL = CN[C@@H](CC(C)C)C(=O)O; ξNMeL = CNC(CC(C)C)C(=O)O

Columns and labels:
[1] = system: Candida albicans (ATCC 10231); experiment: MIC against nonmycobacteria (OD570); type: cell-based; details: ATCC10231, C. albicans
From the text: Standard compounds used were ampicillin (AMP) and gentamicin (GEN). […] Amphotericin B (AmphB) and ketoconazole (KETO) were used as standard compounds.

[2] = system: M. smegmatis (ATCC 700084); experiment: microbe, parasite or virus in culture; type: cell-based; details: Mycolicibacterium smegmatis, ATCC700084; M. smegmatis; read-out: MIC
[3] = system: M. abscessus (ATCC 19977); experiment: microbe, parasite or virus in culture; type: cell-based, Mycobacterium abscessus; details: Mycobacteroides abscessus, ATCC19977, M. abscessus; read-out: MIC
M. marinum (ATCC 927) = experiment: microbe, parasite or virus in culture; type: cell-based; details: Mycobacterium marinum, ATCC927; M. marinum; read-out: MIC
M. avium (ATCC 15769) = experiment: microbe, parasite or virus in culture; type: cell-based; details: Mycobacterium avium, ATCC15769; M. avium; read-out: MIC
M. bovis (ATCC 35734) = experiment: microbe, parasite or virus in culture; type: cell-based; details: Mycobacterium tuberculosis variant bovis, ATCC35734
M. chelonae (ATCC 35752) = experiment: microbe, parasite or virus in culture; type: cell-based, Mycobacterium chelonae; details: Mycobacteroides chelonae, ATCC35752; M. chelonae; read-out: MIC
M. kansasii (ATCC 12478) = experiment: microbe, parasite or virus in culture; type: cell-based; details: Mycobacterium kansasii, ATCC12478; M. kansasii; read-out: MIC
[4] = system: M. tuberculosis strain H37Rv (ATCC 27294); experiment: microbe, parasite or virus in culture; type: cell-based, Mycobacterium tuberculosis
[5] = system: M. tuberculosis 5 global clade representatives; experiment: microbe, parasite or virus in culture; type: cell-based; details: Mycobacterium tuberculosis, read-out: MICs
[6] = Mycobacterium tuberculosis, read-out: MIC against M. tuberculosis

With `C[C@@H]1[C@H](O)[C@@H](C)/C=C/C=C/C=C/C=C/C=C/C=C/C=C/[C@H](O[C@@H]2O[C@H](C)[C@@H](O)[C@H](N)[C@@H]2O)C[C@@H]2O[C@](O)(C[C@@H](O)C[C@@H](O)[C@H](O)CC[C@@H](O)C[C@@H](O)CC(=O)O[C@H]1C)C[C@H](O)[C@H]2C(=O)O` [AmphB, amphotericin B] the MIC [1] was 2.6 µM (≈ 2.4 µg/mL).

For `CC(C)/N=c1\cc2n(-c3ccc(Cl)cc3)c3ccccc3nc-2cc1Nc1ccc(Cl)cc1` [CLO, clofazimine], the MIC [2] was 2.39 µM (≈ 1.13 µg/mL), the MIC [3] was 9.23 µM (≈ 4.37 µg/mL) and the MIC (M. marinum (ATCC 927)) was 0.34 µM (≈ 0.161 µg/mL). For the same compound, the MIC (M. avium (ATCC 15769)) was < 0.2 µM, the MIC (M. bovis (ATCC 35734)) was < 0.2 µM and the MIC (M. chelonae (ATCC 35752)) was 10 µM (≈ 4.73 µg/mL). For the same compound, the MIC (M. kansasii (ATCC 12478)) was < 0.2 µM.

In the case of `C=CC(C)(C)n1cc(C[C@@H]2NC(=O)[C@H](C/C=C/C)NC(=O)[C@H](CC(C)C)N3CC(C)CC(C3=O)N(C)C(=O)[C@H](C)NC(=O)[C@H](Cc3ccc(O)c([N+](=O)[O-])c3)NC(=O)[C@H](CC(C)C)N(C)C2=O)c2ccccc21` (stereo partly shown) [III], the MIC [4, 6] is reported as 1 µM (≈ 1.01 µg/mL).

In the case of `C/C=C/C[C@@H]1NC(=O)[C@H](CC(C)C)N2C(=O)C(C[C@@H](C)[C@H]2O)N(C)C(=O)[C@H](C)NC(=O)[C@H](Cc2ccc(O)c([N+](=O)[O-])c2)NC(=O)[C@H](CC(C)C)N(C)C(=O)[C@H](Cc2cn(C(C)(C)C3CO3)c3ccccc23)NC1=O` (stereo partly shown) [II], the MIC [4, 6] is reported as 0.05 µM (≈ 0.0521 µg/mL).

For `NNC(=O)c1ccncc1` [INH, isoniazid], the MIC [2] was 360 µM (≈ 49.4 µg/mL), the MIC [5] was 0.25 to 0.47 µM (≈ 0.0343 to 0.0645 µg/mL) and the MIC [3] was > 8 µM. For the same compound, the MIC (M. marinum (ATCC 927)) was > 8 µM, the MIC (M. avium (ATCC 15769)) was > 8 µM and the MIC (M. bovis (ATCC 35734)) was 0.48 µM (≈ 0.0658 µg/mL). The MIC (M. chelonae (ATCC 35752)) was > 8 µM, the MIC ([4]; Mycobacterium tuberculosis) was 0.23 µM (≈ 0.0315 µg/mL) and the MIC (M. kansasii (ATCC 12478)) was 3.84 µM (≈ 0.527 µg/mL).

In the case of `C/C=C/C[C@@H]1NC(=O)[C@H](CC(C)C)NC(=O)C(CC(C)C)N(C)C(=O)[C@H](C)NC(=O)[C@H](Cc2ccc(O)c([N+](=O)[O-])c2)NC(=O)[C@H](CC(C)C)NC(=O)[C@H](Cc2cn(C(C)(C)C3CO3)c3ccccc23)NC1=O` (stereo partly shown) [IV] (cyclo(A[ξNMeL]L[Gly(E-crotyl)][X4]L[Tyr(3-NO2)])), the MIC [4, 6] is reported as 0.58 µM (≈ 0.588 µg/mL).

Work on `CC(=O)N1CCN(c2ccc(OCC3COC(Cn4ccnc4)(c4ccc(Cl)cc4Cl)O3)cc2)CC1` (stereo not shown) [KETO, ketoconazole] yielded an MIC [1] of 0.98 µM (≈ 0.521 µg/mL).

Work on `CC(=O)NC[C@H]1CN(c2ccc(N3CCOCC3)c(F)c2)C(=O)O1` [LZD, linezolid] yielded an MIC [5] of 0.41 to 1.6 µM (≈ 0.138 to 0.54 µg/mL) and an MIC ([4]; Mycobacterium tuberculosis) of 1.8 µM (≈ 0.607 µg/mL).

Compound `COc1c(N2C[C@@H]3CCCN[C@@H]3C2)c(F)cc2c(=O)c(C(=O)O)cn(C3CC3)c12` [MXF, moxifloxacin] has an MIC ([4]; Mycobacterium tuberculosis) of 0.26 µM (≈ 0.104 µg/mL).

For `O=[N+]([O-])c1cn2c(n1)OC[C@@H](OCc1ccc(OC(F)(F)F)cc1)C2` [PA824, pretomanid], the MIC [5] was 0.03 to 0.1 µM (≈ 0.0108 to 0.0359 µg/mL), the MIC [3] was > 8 µM and the MIC (M. marinum (ATCC 927)) was > 8 µM. For the same compound, the MIC (M. avium (ATCC 15769)) was > 8 µM, the MIC (M. bovis (ATCC 35734)) was 0.1 µM (≈ 0.0359 µg/mL) and the MIC (M. chelonae (ATCC 35752)) was > 8 µM. For the same compound, the MIC ([4]; Mycobacterium tuberculosis) was 0.04 µM (≈ 0.0144 µg/mL) and the MIC (M. kansasii (ATCC 12478)) was 4.7 µM (≈ 1.69 µg/mL).

`[H]/N=C(/N)N[C@H]1[C@H](O)[C@@H](O)[C@H](O[C@@H]2O[C@@H](C)[C@](O)(C=O)[C@H]2O[C@@H]2O[C@@H](CO)[C@H](O)[C@@H](O)[C@@H]2NC)[C@@H](N/C(N)=N\[H])[C@@H]1O` [STR, streptomycin] gave an MIC ([4]; Mycobacterium tuberculosis) of 0.15 µM (≈ 0.0872 µg/mL).

`C/C=C/C[C@@H]1NC(=O)[C@H](CC(C)C)NC(=O)C(CC(C)C(=O)O)N(C)C(=O)[C@H](C)NC(=O)[C@H](Cc2ccc(O)c([N+](=O)[O-])c2)NC(=O)[C@H](CC(C)C)N(C)C(=O)[C@H](Cc2cn(C(C)(C)C3CO3)c3ccccc23)NC1=O` (stereo partly shown) [VII] (cyclo(A[X3]L[Gly(E-crotyl)][X4][NMeL][Tyr(3-NO2)])) showed an MIC [4, 6] of 1 µM (≈ 1.06 µg/mL).

For `C=CC(C)(C)n1cc(C[C@@H]2NC(=O)[C@H](C/C=C/C)NC(=O)[C@H](CC(C)C)NC(=O)C(CC(C)C)N(C)C(=O)[C@H](C)NC(=O)[C@H](Cc3ccc(O)cc3)NC(=O)[C@H](CC(C)C)N(C)C2=O)c2ccccc21` (stereo partly shown) [VI] (cyclo(A[ξNMeL]L[Gly(E-crotyl)][Trp(1-(1,1-Me2-allyl))][NMeL]Y)), the MIC [4, 6] was > 50 µM.

Compound `C/C=C/C[C@@H]1NC(=O)[C@H](CC(C)C)NC(=O)C(CC(C)C)N(C)C(=O)[C@H](C)NC(=O)[C@H](Cc2ccc(O)c([N+](=O)[O-])c2)NC(=O)[C@H](CC(C)C)N(C)C(=O)[C@H](Cc2cn(C(C)(C)C3CO3)c3ccccc23)NC1=O` (stereo partly shown) [V] (cyclo(A[ξNMeL]L[Gly(E-crotyl)][X4][NMeL][Tyr(3-NO2)])) has an MIC [4, 6] of 0.07 µM (≈ 0.072 µg/mL).

capreomycin was tested, and the MIC [4] was 0.39 µM.
